Laboratory results taken from patent US20220106282A1, “TREATMENT FOR BREAST CANCER, INCLUDING TRIPLE-NEGATIVE BREAST CANCER” (priority 2018, published 2022).
Several values for one entry are separate records, joined by “and”; a condition that tells them apart may be missing. Equal entries are not always repeated. Entries after “also recorded” stand apart in the source; their conditions may differ.

How the values were obtained:
[1] = system: patients having metastases spread into axillary lymph nodes; assay: Chemotherapy of patients with axillary lymph node metastases; format: in vivo, human
ovariectomized rats = assay: Biochemical parameters of ovariectomized rats; format: in vivo, rat; conditions: ovariectomised rats
uterine body = assay: Hormonal effect: uterine body weight in tumor-bearing mice; format: in vivo, mouse
Description: To estimate the hormonal effect of the medicament, the weight of the uterine body without uterine horns was measured (Table 9).

[2] = system: normal human skin fibroblasts; assay: Growth of normal human skin fibroblasts (nonspecific effects); format: cell-based; conditions: concentration of 20 μg/ml; cells having no estrogen receptors
Description: The cells were seeded on Carrel vials at 50×10^4 cells per flask. To study the proliferative activity of the cells under conditions of sulfatase inhibition, 24 […], and then these tumor cell lines were incubated for various periods of time (24 to 72 hrs). The inhibitor was dissolved in DMSO. […] To exclude the cytotoxic effect of DMSO, a control sample comprising DMSO without sulfatase inhibitor was prepared. To exclude nonspecific detrimental effects of the compounds, normal human skin fibroblasts were used. Then the cells were detached with the versene-trypsin solution (Biolot), plated onto Carrel vials containing a fresh complete culture medium. The cells were counted when untreated control cells reached the maximum cell density per unit of surface area of a culture flask (monolayer), and their number was set as 100%. The proliferative activity of all of the studied cell cultures exposed to sulfatase inhibitors was determined in triplicate.

[3] = system: FVB mice transgenic for HER-2/neu; assay: Acute oral toxicity, OECD 423 test; format: in vivo
Description: 12 female mice were used in the experiment.
The dosage form for administration was prepared ex tempore.
No deaths were detected either.
Further the observations were made once per day.
The medicament was administered in 2 steps with a break of 3 hours in a volume of 0.1 ml per 10 g of a body weight per step at the concentration of 100 mg/ml, because the suspension in oil is thicker at higher concentrations and precludes the medicament to be administered through a gavage. […] Regardless of the group the width of the palpebral fissure of the animals was almost unchanged during the entire observation period. No pathological discharges from the eyes were detected. The nose was pink, moderately moist without pathological discharges. The fur of all mice was neat and shiny without bald spots. A 3% decrease of the animals body weight was registered on Day 2 and a 4% weight decrease on Day 7 from the initial weight (Table 3).

[4] = Hormonal effect: uterine body weight in tumor-bearing mice; format: in vivo, mouse

In the case of `C[C@H]1Oc2cc(OS(N)(=O)=O)ccc2[C@H]2CC[C@]3(C)C(=O)CCC[C@H]3[C@H]21` [compound of formula (1), 3-O-sulphamoyloxy-7β-methyl-D-homo-6-oxa-8α-estra-1,3,5(10)-trien-17a-one], the Overall survival rate ([1]; as compared to the Tamoxifen treated group) is reported as “increase the overall survival rate”, the “Prolongation of recurrence-free survival rate” value ([1]; as compared to the untreated group) is reported as 11% and the Uterotropic activity (ovariectomized rats) is reported as “no uterotropic activity”. For the same compound, the Uterus weight (ovariectomized rats; medicament 5 mg/kg bw) was 33 ± 3 mg/100 g bw, the Uterine body weight (uterine body; 20 mg/kg, all mice) was 48 ± 5 mg and the Uterine body weight (uterine body; 20 mg/kg, estrous phase D) was 49 ± 16 mg. The Uterine body weight (uterine body; 20 mg/kg, estrous phase E) was 47 ± 7 mg, the Uterine body weight (uterine body; 100 mg/kg, all mice) was 50 ± 6 mg and the Uterine body weight (uterine body; 100 mg/kg, estrous phase D) was 26 ± 12 mg. The Uterine body weight (uterine body; 100 mg/kg, estrous phase E) was 56 ± 5 mg, the “Hormonal (uterotropic) effect on the uterus” value (uterine body; uterine body weight versus control group, listed as medicament) was “no uterotropic activity; also recorded: did not differ from that of the control group” and the “Growth of human skin fibroblasts” value [2] was “does not influence the growth”. For the same compound, the “Body weight, individual mice” value ([3]; 2000 mg/kg i.g. (title of Table 3), Day 1 (before administration), listed as medicament) was 26.0 and 28.4 and 27.7 and 26.2 (2×) and 28.3, the Body weight, average ([3]; 2000 mg/kg i.g., Day 1 (before administration)) was 27.1 g and the “Body weight, individual mice” value ([3]; 2000 mg/kg i.g., Day 2, listed as medicament, in g (unit assumed)) was 25.7 and 27.7 and 27.0 and 25.3 and 27.4 and 24.7. The “Body weight, individual mice” value ([3]; 2000 mg/kg i.g., Day 7, listed as medicament, in g (unit assumed)) was 25.0 and 25.8 and 29.6 and 24.6 and 27.6 and 25.7, the “Body weight, individual mice” value ([3]; 2000 mg/kg i.g., Day 14, listed as medicament, in g (unit assumed)) was 25.1 and 28.3 and 28.0 and 25.9 and 29.1 and 26.5 and the “Decrease of body weight from the initial weight” value ([3]; 2000 mg/kg, Day 2) was 3%. For the same compound, the LD50 ([3]; oral (i.g.), OECD 423, listed as anti-cancer agent) was greater than 5000 mg/kg, the “Hazard category according to the OECD 423 test” value ([3]; oral (i.g.), listed as anti-cancer agent) was 5th and the “Hazard category according to the OECD 423 test” value ([3]; oral (i.g.), listed as medicament) was 5th or non-classified and 5th or unclassified. It also gave a Body weight ([4]; 20 mg/kg, all mice) of 30.2 ± 1.2 g, a Body weight ([4]; 20 mg/kg, estrous phase D) of 30.3 ± 1.8 g and a Body weight ([4]; 20 mg/kg, estrous phase E) of 30.1 ± 1.7 g. For the same compound, the Body weight ([4]; 100 mg/kg, all mice) was 30.3 ± 0.8 g, the Body weight ([4]; 100 mg/kg, estrous phase D) was 33.1 ± 4.5 g and the Body weight ([4]; 100 mg/kg, estrous phase E) was 29.6 ± 0.5 g.
